Source: the NIST ThermoML archive (doi:10.1016/j.jct.2015.07.014)

Conditions: Fluid (supercritical or subcritical phases), Buoyancy - hydrostatic balance with magnetic suspension - one sinker

O=C=O [carbon dioxide]
Conditions	mass density [kg/m3]
323.2 K, 10968 kPa	497.981
323.24 K, 14966 kPa	698.2
323.24 K, 18962 kPa	770.445
323.24 K, 24961 kPa	833.514
323.25 K, 12967 kPa	633.58
323.25 K, 16965 kPa	739.597
323.25 K, 22962 kPa	815.681
323.25 K, 26959 kPa	849.181
323.25 K, 28037 kPa	856.967
323.26 K, 20966 kPa	795.018
